This note sets out measurements from patent US9572343B2, “Active compound combinations” (BAYER CROPSCIENCE AG, priority 2012, dated 2017).

What all share (type): in vivo
For one assay, the system named is Alternaria solani. Kind of assay: Alternaria test (tomatoes)/preventive. As for the experimental part: (§1) Solvent: 24.5 parts by weight of acetone • 24.5 parts by weight of dimethylacetamide
(§2) Emulsifier: 1 part by weight of alkylaryl polyglycol ether
(§3) To produce a suitable preparation of active compound, 1 part by weight of active compound is mixed with the stated amounts of solvent and emulsifier, and the concentrate is diluted with water to the desired concentration.
To test for preventive activity, young plants are sprayed with the preparation of active compound at the stated rate of application. After the spray coating has dried on, the plants are inoculated with an aqueous spore suspension of Alternaria solani. The plants are then placed in an incubation cabinet at approximately 20° C. and a relative atmospheric humidity of 100%.
The test is evaluated 3 days after the inoculation. 0% means an efficacy which corresponds to that of the untreated control while an efficacy of 100% means that no disease is observed.

In a further assay the test system is Sphaerotheca fuliginea. The assay can be described thus: Sphaerotheca test (cucumbers)/preventive. Particulars: Table G1. The method, then:
Solvent: 24.5 parts by weight of acetone • 24.5 parts by weight of dimethylacetamide Emulsifier: 1 part by weight of alkylaryl polyglycol ether To produce a suitable preparation of active compound, 1 part by weight of active compound is mixed with the stated amounts of solvent and emulsifier, and the concentrate is diluted with water to the desired concentration. To test for preventive activity, young plants are sprayed with the preparation of active compound at the stated rate of application. After the spray coating has dried on, the plants are inoculated with an aqueous spore suspension of Sphaerotheca fuliginea.

Another assay deals with Septoria tritici. The assay can be described thus: Septoria tritici-test (wheat)/preventive. To be noted: Table F1. As for the experimental part:
(§4) Solvent: 49 parts by weight of N,N-dimethylacetamide Emulsifier: 1 part by weight of alkylaryl polyglycol ether To produce a suitable preparation of active compound, 1 part by weight of active compound or active compound combination is mixed with the stated amounts of solvent and emulsifier, and the concentrate is diluted with water to the desired concentration. To test for preventive activity, young plants are sprayed with the preparation of active compound or active compound combination at the stated rate of application. After the spray coating has been dried, the plants are sprayed with a spore suspension of Septoria tritici.

A further assay relates to Venturia inaequalis. The assay can be described thus: Venturia test (apples)/preventive. Particulars: Table I1. As for the experimental part:
Solvent: 24.5 parts by weight of acetone • 24.5 parts by weight of dimethylacetamide Emulsifier: 1 part by weight of alkylaryl polyglycol ether To produce a suitable preparation of active compound, 1 part by weight of active compound is mixed with the stated amounts of solvent and emulsifier, and the concentrate is diluted with water to the desired concentration. To test for preventive activity, young plants are sprayed with the preparation of active compound at the stated rate of application.

The test system of another assay is Uromyces appendiculatus. Kind of assay: Uromyces test (beans)/preventive. To be noted: for Efficacy in % found: application rate 20 ppm a.i.; for pest or weed control at 0.5 ppm: application rate 0.5 ppm a.i.; for pest or weed control at 2 ppm: application rate 2 ppm a.i.; for pest or weed control at 0.2 ppm: application rate 0.2 ppm a.i. As for the experimental part:
as §1, §2, §3
To test for preventive activity, young plants are sprayed with the preparation of active compound at the stated rate of application. After the spray coating has dried on, the plants are inoculated with an aqueous spore suspension of the causal agent of bean rust (Uromyces appendiculatus) and then remain for 1 day in an incubation cabinet at approximately 20° C. and a relative atmospheric humidity of 100%.
The plants are then placed in a greenhouse at approximately 21° C. and a relative atmospheric humidity of approximately 90%.
The test is evaluated 10 days after the inoculation. 0% means an efficacy which corresponds to that of the untreated control, while an efficacy of 100% means that no disease is observed.

The next assay has as its system Phakopsora pachyrhizi. The assay can be described thus: Phakopsora test (soybeans)/preventive. Particulars: for pest or weed control at 0.5 ppm: application rate 0.5 ppm a.i.; for pest or weed control at 1 ppm: application rate 1 ppm a.i.; for pest or weed control at 0.25 ppm: application rate 0.25 ppm a.i.
The next assay has as its system Leptosphaeria nodorum. The assay can be described thus: Leptosphaeria nodorum test (wheat)/preventive. Particulars: Table C1. As for the experimental part:
as §4, with “Leptosphaeria nodorum.” for “Septoria tritici.”

The next assay deals with Pyrenophora teres. The assay can be described thus: Pyrenophora teres-test (barley)/preventive. To be noted: Table E1; application rate 160 ppm a.i. As for the experimental part:
Solvent: 49 parts by weight of N,N-dimethylacetamide
as §2
To produce a suitable preparation of active compound, 1 part by weight of active compound or active compound combination is mixed with the stated amounts of solvent and emulsifier, and the concentrate is diluted with water to the desired concentration.
To test for preventive activity, young plants are sprayed with the preparation of active compound or active compound combination at the stated rate of application.
After the spray coating has been dried, the plants are sprayed with a spore suspension of Pyrenophora teres. The plants remain for 48 hours in an incubation cabinet at approximately 20° C. and a relative atmospheric humidity of approximately 100%.
The plants are placed in the greenhouse at a temperature of approximately 20° C. and a relative atmospheric humidity of approximately 80%.
The test is evaluated 8 days after the inoculation. 0% means an efficacy which corresponds to that of the untreated control, while an efficacy of 100% means that no disease is observed.

Assay [1] concerns Blumeria graminis f.sp. hordei. Kind of assay: Blumeria test (barley)/preventive. To be noted: Table B1; application rate 160 ppm a.i. As for the experimental part:
Solvent: 49 parts by weight of N,N-dimethylacetamide Emulsifier: 1 part by weight of alkylaryl polyglycol ether To produce a suitable preparation of active compound, 1 part by weight of active compound or active compound combination is mixed with the stated amounts of solvent and emulsifier, and the concentrate is diluted with water to the desired concentration. To test for preventive activity, young plants are sprayed with the preparation of active compound or active compound combination at the stated rate of application. After the spray coating has been dried, the plants are dusted with spores of Blumeria graminis f.sp. hordei.

Setting [2] is: Table A3, application rate 20 ppm a.i.
The mark [3] stands for this setting: Phakopsora pachyrhizi, 168 h, Table D1, read-out: Efficacy in % found.
[4] abbreviates: Uromyces appendiculatus, 240 h, Table H2, read-out: Efficacy in % found.
The mark [5] stands for this setting: Phakopsora pachyrhizi, 168 h, Table D2, read-out: Efficacy in % found.
[6] abbreviates: Table A2, application rate 5 ppm a.i.
Setting [7] is: Table A1, application rate 1 ppm a.i.
Where [8] appears, read: Phakopsora pachyrhizi, 168 h, Table D3, read-out: Efficacy in % found.

Where two headings read alike, the source gives them in different places.

As for chlorothalonil [5.4], the “Efficacy in % found” value in the assay with Alternaria solani (setting [2]) is on record as 8%; in the assay on Sphaerotheca fuliginea (application rate 20 ppm a.i.) it was 29%; in the assay with Septoria tritici (application rate 160 ppm a.i.), 0%; in the assay with Venturia inaequalis (application rate 20 ppm a.i.), 68%; with Uromyces appendiculatus (Table H3), 0%.

In the case of `Cn1c(=O)c2sc3c(=O)n(C)c(=O)c3sc2c1=O` [15.61, 2,6-dimethyl-1H,5H-[1,4]dithiino[2,3-c:5,6-c′]dipyrrole-1,3,5,7(2H,6H)-tetrone], the “Efficacy in % found” value is listed as 69% with Sphaerotheca fuliginea (application rate 100 ppm a.i.), 0% with Septoria tritici (application rate 800 ppm a.i.), 84% with Venturia inaequalis (application rate 50 ppm a.i.) and 20% in the assay on Leptosphaeria nodorum (application rate 800 ppm a.i.). In addition, the pest or weed control at 100 ppm is 8% in the assay on Phakopsora pachyrhizi (Phakopsora pachyrhizi, 168 h, Table D3, application rate 100 ppm a.i., read-out: Efficacy in % found) and 0% with Uromyces appendiculatus (Uromyces appendiculatus, 240 h, Table H3, application rate 100 ppm a.i., read-out: Efficacy in % found).

For `Fc1ccc([C@]2(Cn3cncn3)O[C@H]2c2ccccc2Cl)cc1` (racemic) [1.12, epoxiconazole], the “Efficacy in % found” value in the assay with Sphaerotheca fuliginea (application rate 1 ppm a.i.) amounted to 0%; in the assay on Septoria tritici (application rate 40 ppm a.i.) it was 14%; in the assay on Leptosphaeria nodorum (application rate 40 ppm a.i.) it was 60%. In addition, the pest or weed control at 0.5 ppm with Phakopsora pachyrhizi (setting [3]) was determined as 23%; with Uromyces appendiculatus (setting [4]), 30%.

Consider propineb [5.29], for which the “Efficacy in % found” value in the assay on Alternaria solani (setting [2]) was 12%; in the assay on Sphaerotheca fuliginea (application rate 20 ppm a.i.) it was 71%; with Phakopsora pachyrhizi (Table D3, application rate 20 ppm a.i.) it was 0%; with Septoria tritici (application rate 400 ppm a.i.) it was 29%; in the assay on Venturia inaequalis (application rate 5 ppm a.i.), 14%; in the assay with Uromyces appendiculatus (Table H3), 56%.

As for `OC(Cc1ccccc1Cl)(Cn1nc[nH]c1=S)C1(Cl)CC1` (centres unmarked) [1.41, prothioconazole], the pest or weed control at 1 ppm with Phakopsora pachyrhizi (setting [5]) was 60%. The “Efficacy in % found” value in the assay with Leptosphaeria nodorum (application rate 80 ppm a.i.) was 30%. For the same compound, the pest or weed control at 2 ppm in the assay with Uromyces appendiculatus (setting [4]) stood at 30%.

`CC(C1CC1)C(O)(Cn1cncn1)c1ccc(Cl)cc1` (centres unmarked) [1.5, cyproconazole]: the “Efficacy in % found” value with Alternaria solani (setting [6]) is listed as 23%; in the assay on Sphaerotheca fuliginea (application rate 1.25 ppm a.i.) it was 52%; in the assay on Septoria tritici (application rate 80 ppm a.i.), 0%. Also, the pest or weed control at 0.5 ppm in the assay with Uromyces appendiculatus (setting [4]) worked out at 50%.

Turning to `CON=C(C(=O)OC)c1ccccc1CON=C(C)c1cccc(C(F)(F)F)c1` [3.22, trifloxystrobin], the “Efficacy in % found” value is recorded as 45% in the assay with Alternaria solani (setting [6]), 71% in the assay on Septoria tritici (application rate 20 ppm a.i.), 66% in the assay on Venturia inaequalis (application rate 0.25 ppm a.i.) and 40% with Leptosphaeria nodorum (application rate 20 ppm a.i.).

Turning to `CC1(C)CCC(Cc2ccc(Cl)cc2)C1(O)Cn1cncn1` (centres unmarked) [1.30, metconazole], the “Efficacy in % found” value in the assay with Leptosphaeria nodorum (application rate 40 ppm a.i.) was found to be 30%. In the assay on Uromyces appendiculatus (setting [4]), the pest or weed control at 2 ppm turned out to be 30%.

Take `COC(=O)N(OC)c1ccccc1COc1ccn(-c2ccc(Cl)cc2)n1` [3.17, pyraclostrobin]: the “Efficacy in % found” value with Alternaria solani (setting [7]) came out at 28%; with Septoria tritici (application rate 20 ppm a.i.) it was 0%; in the assay on Venturia inaequalis (application rate 1 ppm a.i.), 23%; with Leptosphaeria nodorum (application rate 20 ppm a.i.), 50%. For the same compound, in the assay with Phakopsora pachyrhizi (setting [3]), the pest or weed control at 0.25 ppm was 0%.

As for `CCN(C)/C=N/c1cc(C)c(Oc2nc(Cl)c(Cl)s2)cc1C` [(Ie)], the “Efficacy in % found” value with Alternaria solani (Table A1, application rate 0.5 ppm a.i.) turned out to be 0%; with Alternaria solani (setting [7]), 16%; with Alternaria solani (setting [6]), 0%; in the assay with Alternaria solani (Table A3, application rate 1 ppm a.i.), 52%; in the assay on Sphaerotheca fuliginea (application rate 0.5 ppm a.i.), 29%; with Sphaerotheca fuliginea (application rate 1 ppm a.i.), 29%. In addition, the “Efficacy in % found” value in the assay with Sphaerotheca fuliginea (application rate 1.25 ppm a.i.) is given as 29%; in the assay with Septoria tritici (application rate 160 ppm a.i.), 0%; in the assay on Venturia inaequalis (application rate 0.25 ppm a.i.), 0%; in the assay with Venturia inaequalis (application rate 0.5 ppm a.i.), 0%; in the assay with Venturia inaequalis (application rate 1 ppm a.i.), 0%; in the assay on Pyrenophora teres it was 57%. The entries for the “Efficacy in % found” value (with Leptosphaeria nodorum (application rate 80 ppm a.i.); in the assay with Leptosphaeria nodorum (application rate 160 ppm a.i.); in assay [1]) were 30%, 50% and 50%, respectively. For the same compound, the pest or weed control at 0.25 ppm in the assay on Phakopsora pachyrhizi (setting [3]) amounted to 15%; with Uromyces appendiculatus (Uromyces appendiculatus, 240 h, Table H1, application rate 0.25 ppm a.i., read-out: Efficacy in % found), 50%. Also, the figures for the pest or weed control at 0.5 ppm in the assay with Phakopsora pachyrhizi (setting [3]), in the assay with Phakopsora pachyrhizi (setting [5]) and with Phakopsora pachyrhizi (setting [8]) were 35%, 45% and 40%, respectively. The pest or weed control at 1 ppm in the assay with Phakopsora pachyrhizi (setting [8]) was determined as 65%. The pest or weed control at 0.05 ppm in the assay on Uromyces appendiculatus (Uromyces appendiculatus, 240 h, Table H2, application rate 0.05 ppm a.i., read-out: Efficacy in % found) is 0%. For the same compound, the pest or weed control at 0.1 ppm with Uromyces appendiculatus (Uromyces appendiculatus, 240 h, Table H2, application rate 0.1 ppm a.i., read-out: Efficacy in % found) is 0%. For the same compound, the pest or weed control at 0.2 ppm was found to be 30% in the assay with Uromyces appendiculatus (setting [4]) and 11% in the assay with Uromyces appendiculatus (Uromyces appendiculatus, 240 h, Table H3, read-out: Efficacy in % found).
